“Also recorded” adds a separate entry of the source.
How the values were obtained:
[1] = test system: MRL/lpr mice; assay: Serum autoantibodies by ELISA in MRL/lpr and MRL/++ mice; assay type: in vivo, mouse; conditions: 16 weeks of age
Experimental: (§1) FTS was synthesized as previously described (13). FTS was stored in chloroform, which was evaporated under a stream of nitrogen immediately before use. The powder was dissolved in absolute ethanol and diluted to the desired concentration in sterile saline made basic with NaOH. 200 μl of carrier solution containing 100 μg of FTS (5 mg/kg) were injected intraperitoneally (i.p.) into each mouse. Control solution was prepared at the same time starting with a chloroform solution.
(§2) Mice were treated once a day, 3-5 times a week starting from 6 or 10 weeks of age until 18 weeks of age.
The mice were bled at 16 weeks of age by retro-orbital sinus puncture and the sera were separated by centrifugation and stored at −70° C. until assayed. The sera were tested by ELISA for the presence of different autoantibodies as previously described (15, 16). This included serum dependent (β2-GPI dependent) and independent antibodies to cardiolipin (aCL) and antibodies to single and double stranded DNA (anti-ssDNA, anti-dsDNA).

[2] = test system: TAA-induced liver cirrhosis in Wistar rats; assay: Hepatic hydroxyproline levels in TAA-induced cirrhosis; assay type: in vivo, rat
Experimental: Liver cirrhosis was induced in rats by intraperitoneal (i.p.) administration of TAA 200 mg/kg twice weekly for 12 weeks, as previously described (1, 2). […] The FTS was dissolved in PBS and administered i.p. 3 times a week to rats according to their assigned groups. Four groups containing 6 rats each were treated as follows. One group received TAA 200 mg/kg i.p. twice a week and i.p. injections of PBS 3 days a week for 12 weeks (cirrhotic controls for the FTS-treated groups). A second group received TAA for 12 weeks and FTS 5 mg/kg, 3 times a week. […] The two control groups consisted of one that received PBS injections without TAA for 12 weeks (normal controls) and a group of 5 rats that received only FTS 5 mg/kg i.p. for 12 weeks to monitor the appearance of adverse effects. Quantitative determination of hepatic hydroxyproline levels was performed as previously described (2). The hydroxyproline levels were analyzed twice and separately for each liver.

[3] = Distribution of 3H-FTS in plasma and liver; assay type: in vivo, rat; conditions: 5 mg/Kg
Experimental: For each set of experiments, FTS was prepared in chloroform (0.1 M stock solution) and maintained at −70° C. The chloroform was removed from the stock solution by a stream of nitrogen prior to use, and FTS was then dissolved either in DMSO (in vitro experiments) or in ethanol (in vivo experiments). The FTS/DMSO solutions were diluted with DMEM/10% fetal calf serum (FCS) to yield a 100×drug stock solution containing 10% DMSO. A portion of this solution was applied to the cells at a dilution of 1:100. The FTS/ethanol solution was alkalinized by the addition of 1N NaOH, then diluted with phosphate-buffered saline (PBS) to obtain a solution of 1.0 mg FTS/ml (pH 8.0, 0.5% ethanol). This solution (1-1.5 ml per rat) was used in the in vivo experiments. In a separate set of experiments, the distribution of FTS in the plasma and in the liver was assayed by the use of 3H -FTS (12.5 ci/mmole, ARC, St. Louis Mo.). […] The estimated concentration FTS in the liver at peak times (20 to 60 min) was 29 μM. Drug levels in the liver declined thereafter to the level of 0.5 μM at 24 h.

[4] = test system: lymphocytes of EAE mice; assay: In vitro mitogenic response (LPS, PLP 139-151 peptide) of lymph node lymphocytes of EAE mice; assay type: cell-based, mouse; conditions: 25 microM FTS; lymphocytes of EAE mice day 10
[5] = test system: EAN in Lewis rats; assay: Experimental autoimmune neuritis (EAN) in Lewis rats, clinical score and rotarod; assay type: in vivo, rat
[6] = test system: MRL/lpr mice; assay: Lymphadenopathy and splenomegaly in MRL mice; assay type: in vivo, mouse
Experimental: The development of generalized lymphadenopathy in the MRL/lpr mice (saline and FTS-treated) was evaluated by palpation of axillary and inguinal lymph nodes. The maximal lymph nodes score in each mouse was 4, when both axillary and inguinal lymph nodes (in both sides) were palpable. At 18 weeks of age the mice were sacrificed and the spleens and lymph nodes (axillary, inguinal and cervical) were removed and weighed.

[7] = test system: MRL/lpr and MRL/++ mice; assay type: in vivo; conditions: FTS 5 mg/Kg/day
Experimental: as §1, §2
Proteinuria was normalized in FTS-treated MRL/lpr mice as were grip strength and certain aspects of behavior in the open field.

[8] = test system: Balb-C mice immunized with ApoH; assay: Autoantibodies in Balb-C mice immunized with ApoH (induced APS model); assay type: in vivo, mouse; conditions: 9 per group
Experimental: Similar antibody assays were performed with the sera of Balb-C mice (9 per group) immunized with ApoH 10 μg in complete Freund's adjuvant with boosts given 2 and 6 weeks later in incomplete adjuvant.

[9] = test system: cancers in animals mediated by oncogenic forms of Ras; conditions: cited from earlier work
[10] = test system: Ras; assay: Ras in membranes (P100) and cytosol (S100) of cultured spleen lymphocytes (Western immunoblot); assay type: cell-based, mouse; conditions: for amount of insoluble (P100) Ras: 24 h, relative to FTS 0 μM = 100
Experimental: Spleen lymphocytes, obtained from six mice as described above, were pooled and plated in 10 cm dishes containing RPMI/5% FCS at a density of 2.3×10^7 cells per plate. […] Twenty-four hours later the cells were collected (pools of 2 plates for each treatment) and washed in PBS. The cells were then homogenized in homogenization buffer containing protease inhibitors. Ras was determined in total cell membranes (P100) and cytosol (S100) obtained by centrifugation ([…], 30 min, 4° C.). Briefly, 25 μg of total cellular proteins were separated by 12.5% sodium dodecylsulfate polyacrylamide gel electrophoresis (SDS-PAGE) and blotted onto nitrocellulose membranes. Immunoblotting with pan-Ras, enhanced chemiluminescense assays (ECL) and densitometric analysis were then performed as detailed previously (14).

[11] = test system: CR-EAE in SJL/J mice; assay: Chronic-relapsing EAE (CR-EAE) by transfer of PLP-sensitized lymphocytes, clinical signs; assay type: in vivo, mouse
[12] = FTS 5 mg/kg/day i.p. days 0-10 only

CC(C)=CCC/C(C)=C/CC/C(C)=C/CSc1ccccc1C(=O)O [FTS, farnesyl thiosalicylic acid]
levels of anti-dsDNA antibodies [1]: did lower the levels; also recorded: significant decrease
levels of anti-ssDNA antibodies [1]: did not affect the levels
levels of non-serum dependent aCL antibodies [1]: did not affect the levels
levels of β2-GPI dependent aCL antibodies [1]: did lower the levels; also recorded: significant decrease
hepatic hydroxyproline levels ([2]; TAA plus FTS, TAA alone 7.7±0.9): 3.8±0.5 mg/g protein
hepatic hydroxyproline levels ([2]; control group treated with FTS only): 1.6±0.1 mg/g protein
estimated concentration of FTS in the liver at peak times [3]: 29 µM
peak liver levels, % of the injected dose [3]: 1.75%
peak plasma levels, % of the injected dose [3]: 10.7%
peak times in the liver [3]: 20 to 60 min
concentration at 24 h ([3]; Wistar, rat, liver, other: injected (type of injection not given), read-out: drug level in the liver at 24 h): 500 nM
suppression of the LPS mitogenic response [4]: 91%
suppression of the PLP mitogenic response [4]: 62%
recovery [5, 12]: recovered faster than the other groups
severity of disease [5, 12]: equal severity to controls
clinical score / rotarod, peak of disease ([5]; FTS 5 mg/kg/day i.p. days 0-28): significantly ameliorated the peak of disease
rats with brief relapses of clinical signs during recovery ([5]; FTS days 0-10 only): Three of the 5 rats
recovery ([5]; treatment from day 10): recovered significantly faster
Mean clinical scores for days 15-19 ([5]; treatment from day 10, ±SE, n=10, control 4.12±0.61): 2.74±0.66
spleen weight ([6]; MRL/++ mice, untreated 0.13±0.01): 0.19 ± 0.03 g
lymphadenopathy (palpation score) ([6]; MRL/lpr mice): significantly delayed; also recorded: significantly less
weight of excised lymph nodes ([6]; MRL/lpr mice): significant effect of FTS; also recorded: significantly less
spleen weight ([6]; MRL/lpr mice, 17 weeks, mean±SE, untreated 0.54±0.04): 0.41 ± 0.04 g
toxicity [7]: no significant toxicity
anti-ApoH, anti-ds DNA and anti-phosphatidyl-ethanolamine levels [8]: significant effect of FTS treatment
reduction in cancer cell growth ([9]; cancers in animals, in some cases): greater than 90%
body weight, specific organs size, blood count and chemistry ([9]; earlier studies in FTS-treated animals): no alteration
doses that effectively inhibited tumor growth ([9]; previous animal studies): 3 to 10 mg/kg
effect on normal cells ([9]; similar dosages as in cancer treatment): very little, if any, effect on normal cells
amount of insoluble (P100) Ras ([10]; FTS 12.5 μM): 84±9.8%
amount of insoluble (P100) Ras ([10]; FTS 50μM as printed): 52±16%
levels of soluble (S100) Ras ([10]; FTS 12.5 and 25 μM): no concomitant observable change
clinical course of CR-EAE (FIG. 2) ([11]; FTS 5 mg/kg/day from day of cell transfer): milder form of CR-EAE
mortality in CR-EAE ([11]; FTS 5 mg/kg/day, vehicle group 30%): none of them died
total relapses of the paralytic disease ([11]; follow-up 2-3 months, n=7, control 9): 5

From patent publication US6462086B1, “Non-malignant disease treatment with Ras antagonists” (Ramot University Authority for Applied Research and …, priority 1999, dated 2002)
